Measurements taken from the supplement of paper PMC10307832.

Legend:
Experiment in all cases: relative viability (nuclei count vs DMSO), 5 days (fraction); higher = more cells survive
[1] = compound: C1CNCCC1C2=CC(=NN2)C3=CC=NC=C3 + Cc1cc(Nc2cc(N3CCN(C)CC3)nc(Sc3ccc(NC(=O)C4CC4)cc3)n2)n[nH]1 [Tozasertib] (partner 0.1 µM)
Procedure, shortened: (§1)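 Lung cancer cell lines were seeded in 1536-well plates and dosed by pin tool the next day, with either a single drug or a fixed anchor-drug dose combined with five library-drug doses (not always all listed) spaced in √10 steps. Five days later, one step fixed the cells and stained their nuclei (final 0.05% Triton X-100, 1% formaldehyde, 1 ug/ml Hoechst), and nuclei were counted on 4× images. Relative viability is the nuclei count in treated wells divided by the count in vehicle wells, and each value is the median of duplicate plates.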

[2] = compound: C[C@@H](N)c1ccc(C(=O)Nc2ccnc3[nH]ccc23)cc1 + COc1cccc2cc(-c3nc([C@H]4CC[C@H](C(=O)O)CC4)n4ncnc(N)c34)[nH]c12 [OSI-027] (partner 0.5 µM)
Procedure, shortened: as §1

Tanzisertib + Pictilisib = compound: O[C@H]1CC[C@H](Nc2ncc3nc(Nc4c(F)cc(F)cc4F)n([C@H]4CCOC4)c3n2)CC1 [Tanzisertib] + CS(=O)(=O)N1CCN(Cc2cc3nc(-c4cccc5[nH]ncc45)nc(N4CCOCC4)c3s2)CC1 [Pictilisib] (partner 1 µM)
Procedure, shortened: as §1

Tanzisertib + Vorinostat = compound: O[C@H]1CC[C@H](Nc2ncc3nc(Nc4c(F)cc(F)cc4F)n([C@H]4CCOC4)c3n2)CC1 [Tanzisertib] + O=C(CCCCCCC(=O)Nc1ccccc1)NO [Vorinostat] (partner 1 µM)
Procedure, shortened: as §1

Cell Line	relative viability ([1]; first compound 0.08 µM)	relative viability ([1]; first compound 0.8 µM)	relative viability ([1]; first compound 2.53 µM)	relative viability ([1]; first compound 8 µM)	relative viability ([2]; first compound 0.04 µM)	relative viability ([2]; first compound 0.1265 µM)	relative viability ([2]; first compound 0.4 µM)	relative viability ([2]; first compound 4 µM)	relative viability (Tanzisertib + Pictilisib; first compound 0.08 µM)	relative viability (Tanzisertib + Pictilisib; first compound 0.253 µM)	relative viability (Tanzisertib + Pictilisib; first compound 0.8 µM)	relative viability (Tanzisertib + Pictilisib; first compound 2.53 µM)	relative viability (Tanzisertib + Pictilisib; first compound 8 µM)	relative viability (Tanzisertib + Vorinostat; first compound 0.253 µM)	relative viability (Tanzisertib + Vorinostat; first compound 0.8 µM)	relative viability (Tanzisertib + Vorinostat; first compound 2.53 µM)	relative viability (Tanzisertib + Vorinostat; first compound 8 µM)	relative viability ([2]; first compound 1.265 µM)	relative viability (Tanzisertib + Vorinostat; first compound 0.08 µM)
HCC-366	0.214	0.137	0.182	0.123	0.787	0.847	0.993	1.08	0.138	0.15	0.134	0.128	0.114	0.361	0.386	0.428	0.309		
HCC-827	0.389	0.435	0.453	0.432	0.849	0.873	0.844	0.764	0.876	0.937	1.14	0.885	0.536	0.871	0.725	0.853	0.357	0.922	0.747
HOP-62	0.416	0.407	0.386	0.383	0.819	0.76	0.852	0.821	0.851	0.874	0.856	0.871	0.341	0.599	0.679	0.768	0.605	0.745	0.632
IA-LM									0.375	0.335	0.339	0.255	0.362	0.899	0.912	0.939	0.822		1.2
LC-2-ad		0.445	0.485	0.467	0.763	0.893	0.858	0.625	0.506	0.426	0.458	0.0954	0.359	0.69	0.702	0.715	0.493		0.731
LCLC-97TM1	0.225	0.177	0.256	0.293	0.69	0.587	0.625	0.701		0.16	0.176	0.159	0.164	0.749	0.638	0.86	0.169	0.384	0.862
LCLC-103H	0.469	0.534	0.459	0.443	0.416	0.453	0.438	0.432	0.698	0.642	0.648	0.616	0.608	0.773	0.801	0.783	0.653	0.463	0.896
LK-2	0.157	0.208	0.182	0.184	0.295	0.176	0.212	0.249	0.515	0.578	0.477	0.463	0.435	0.356	0.282	0.25	0.278		0.365
LOU-NH91	0.673	0.648	0.696	0.58	0.626	0.667	0.688	0.591	0.516	0.544	0.573	0.51	0.443	0.924	1	0.974	0.418	0.601	0.948
LU99A	0.307	0.267	0.278	0.304		0.328	0.292	0.316	0.322	0.303	0.319	0.358	0.321	0.447	0.51	0.559	0.519	0.277	0.565
LXF-289	0.219	0.196	0.178	0.207	0.639	0.821	0.986	0.763	0.887	0.745	0.459	0.735	0.804	0.766	0.88	0.818	0.767	0.709	0.835
NCI-H23	0.35	0.422	0.411	0.36	0.603	0.577	0.592	0.674	0.488	0.483	0.459	0.499	0.365	0.596	0.498	0.49	0.474		0.542
NCI-H322M	0.461	0.462	0.523	0.503	0.656	0.586	0.63	0.706	0.506	0.648	0.591	0.494	0.459	0.961	0.875	0.912	0.75		0.863
NCI-H522	0.519	0.518	0.587	0.562	0.657	0.67	0.78	0.737						0.902	0.773	0.762	0.836	0.764	0.913
NCI-H1299									0.762	0.713	0.699	0.893	0.729						
NCI-H1563					0.796	0.767	0.679	0.846	0.661	0.638	0.572	0.601	0.607					0.816	
NCI-H1623	0.434	0.446	0.439	0.454	0.559	0.418	0.502	0.503										0.469	
NCI-H1648	0.425	0.475	0.461	0.508	0.265	0.301	0.267	0.346						0.36	0.398	0.571	0.391	0.289	0.553
NCI-H1703									0.272	0.245	0.258	0.224	0.218						
NCI-H1792					0.796	0.77	0.736	0.65	0.307	0.261	0.29	0.231	0.243					0.869	
NCI-H2342	0.437	0.491	0.537	0.518	0.711	0.694	0.763	0.675						0.847	0.816	0.765	0.754	0.655	0.801
SW 900	0.648	0.623	0.514	0.681	0.657	0.608	0.596	0.824						0.604	0.641	0.512	0.382	0.688	
